Results taken from patent publication US20080319084A1, “Wrinkling Prevention or Remedy with Adam Activity Inhibiting Substance” (Shiseido Company, Ltd., priority 2004, published 2008).

What was measured:
[1] = test system: finely wrinkled mouse model; experiment: Anti-wrinkling effects of medicine application on finely wrinkled mouse model (tape stripping); type: in vivo, hairless mouse (HR-1); set-up: key to Wrinkling suppressing effects / Epidermal hyperplasia suppressing effects / Dermal hyperplasia suppressing effects: O: Remedied.; Δ: No alteration was found.; x: Aggravated; details: for Dermal hyperplasia suppressing effects / Epidermal hyperplasia suppressing effects / Wrinkling suppressing effects: 100 μl applied to skin after each tape stripping, 2 mM TAPI-1, 1% CGS27023A, 10% glycerol, 1% oleic acid; for Dermal hyperplasia suppressing effects / Epidermal hyperplasia suppressing effects: four weeks, HE-stained slices; for Wrinkling suppressing effects: up to four weeks; for hyperplasia of the epidermis and the dermis (in words) / wrinkle formation (in words): finely wrinkled mouse model, topical application
Method: It is considered that, in cases where the skin barrier is weakened or disrupted by various primary factors, such as a decrease in sebum and face washing, and water evaporation from the skin surface increases, the skin dries, and the fine wrinkles are formed. Therefore, tape stripping was repeatedly performed on the skin of a hairless mouse, the stratum corneum of thus peeled off, and the skin barrier was broken. In this manner, a finely wrinkled mouse model was prepared. Specifically, the tape stripping with cellophane adhesive tapes was performed on the skin on the left side of the dorsal section of a hairless mouse (HR-1, male, six weeks of age, supplied by Hoshino Experimental Animals) with the number of times of the tape stripping being adjusted such that a transepidermal water loss (TEWL) (as measured by use of a water evaporation quantity measuring apparatus MEECO, supplied by Meeco Co., U.S.A) might fall within the range of 4 mg/cm^2/h to 6 mg/cm^2/h. Ordinarily, at the initial stage, the tape stripping was iterated approximately four times. At the final stage, the tape stripping was iterated seven to eight times. The tape stripping was performed in three stages per week and was continued for four weeks. The right side of the dorsal section of the hairless mouse was left to stand as a non-treatment area. Studies were made with respect to the anti-wrinkling effects of the application of various medicines, which were listed in Table 2 below, on the finely wrinkled mouse model. Specifically, the tape stripping was performed on a hairless mouse in the manner described above. After each tape stripping processing, 100 μl of each of the medicines listed in Table 2 was applied to the skin of the hairless mouse. FIG. 4A is a diagram showing replica images of skins having been applied with different medicines in the finely wrinkled mouse model, which replica images have been taken at stages one week, two weeks, and four weeks after the application of each of the medicines. FIG. 4B is a diagram showing microscopic photographs of skin tissue slices of the skins at the stage four weeks after the application of each of the medicines, which skin tissue slices have been stained with HE (hematoxylin-eosin).

[2] = test system: finely wrinkled mouse model; experiment: Evaluation of anti-wrinkling effects of ADAM activity inhibiting substances in finely wrinkled mouse model (visual score, wrinkle area); type: in vivo, hairless mouse (HR-1); details: for mean value of the wrinkle score (visual judgment, 0 no wrinkle to 3 deep wrinkles): after four weeks, 1 mM TAPI-1 or 1% 4-methoxybenzohydroxamic acid in 50% aqueous ethanol, 100 μl after each tape stripping, vehicle 1.17; for mean value of the wrinkle area (%) versus vehicle: replica analysis after four weeks, 1 mM TAPI-1 or 1% 4-methoxybenzohydroxamic acid
Method: The anti-wrinkling effects of TAPI-1 and 4-methoxybenzohydroxamic acid acting as the ADAM activity inhibiting substances were studied by use of the finely wrinkled mouse model.
Specifically, on the skin on the left side of the dorsal section of a hairless mouse (HR-1, male, six weeks of age, supplied by Hoshino Experimental Animals), the tape stripping was performed in three stages per week and was continued for four weeks such that the transepidermal water loss (TEWL) (as measured by use of a water evaporation quantity measuring apparatus MEECO, supplied by Meeco Co., U.S.A) might fall within the range of 4 mg/cm^2/h to 8 mg/cm^2/h. Immediately after each stage of the tape stripping processing had been performed, 100 μl of TAPI-1 or 4-methoxybenzohydroxamic acid was applied to the skin on the left side of the dorsal section of the mouse. At this time, 4-methoxybenzohydroxamic acid was dissolved in a 50% aqueous ethanol solution such that the concentration of 4-methoxybenzohydroxamic acid might become equal to 1%, and 4-methoxybenzohydroxamic acid was used in the form of the resulting solution. Also, TAPI-1 (supplied by Peptide Research Institute) was evaluated at a concentration of 1 mM. Further, as a negative control, a 50% aqueous ethanol solution (i.e., a vehicle) was applied in the same manner as that described above.
The state of occurrence of wrinkles after a period of four weeks had elapsed was expressed by scores with visual judgment. The state of occurrence of wrinkles was evaluated with the rating described below. • 0: No wrinkle • 1: shallow wrinkles • 2: clear wrinkles • 3: Deep wrinkles The state of occurrence of wrinkles was expressed by the scores at intervals of 0.5. A larger score represents deeper wrinkles. The mean value and the standard deviation of each group were calculated. The results illustrated in FIG. 5 were obtained.
Thereafter, the replicas of the dorsal section of the mouse were analyzed by use of a wrinkle analyzing apparatus (supplied by Hamano Engineering), and the wrinkle area (%) was calculated. A low wrinkle area percentage represents that the wrinkle formation has been suppressed. The results illustrated in FIG. 6 were obtained.

ADAM enzyme = experiment: Screening of ADAM activity inhibiting substance: TPA-induced HB-EGF-AP release from HB-EGF-AP/HT-1080 cells; type: cell-based, human; details: 60 nM TPA, 60 minutes
Method: Firstly, the screening of a compound having the ADAM enzyme inhibiting activity was performed by use of HB-EGF-AP/HT-1080 (human fibrosarcoma-derived cultured cells HT-1080 having been modified so as to achieve forcible expression of a fusion protein, in which heat-resistant alkaline phosphatase (AP) has been added to an N terminal of human HB-EGF). On the surfaces of the cells of the used cell strain HB-EGF-AP/HT-1080, the HB-EGF entire length molecule is expressed in the form fused with the alkaline phosphatase. In cases where the cells are excited by a phorbol ester, the ADAM enzyme on the cell membrane surfaces is activated to cut the HB-EGF molecule. Since alkaline phosphatase has been bound to HB-EGF having been cut into the released form, in cases where the alkaline phosphatase activity in a culture supernatant is measured, the ADAM enzyme inhibiting activity of the compound is capable of being measured indirectly.
Specifically, HB-EGF-AP/HT-1080, in which the number of cells had been adjusted at 2.0×10^5 cells/ml, was sowed at a rate of 0.2 ml/well to a 96-well culture micro-plate and was cultured overnight at a temperature of 37° C. […] After the incubation was performed at the room temperature for two hours under a light blocking condition, the absorbance in each well at the wavelength of 405 nm was measured again. […]

Photo-aged mouse model = experiment: Wrinkle formation in Photo-aged mouse model (UV light irradiation); type: in vivo
Method: FIG. 2A is a diagram showing replica images of the mouse skin having been subjected to the tape stripping in the manner described above. FIG. 2B is a diagram showing microscopic photographs of a skin tissue slice of the mouse skin, which skin tissue slice has been stained with HE (hematoxylin-eosin). As illustrated in the replica images (FIG. 2A), skin ditches became deep at the stage 24 hours (24 h) after the beginning of the tape stripping and at the stage 48 hours (48 h) after the beginning of the tape stripping. At the stage one week (1 W) after the beginning of the tape stripping, the directions of the skin ditches coincided with predetermined directions. At the stage four weeks (4 W) after the beginning of the tape stripping, a wrinkle-like appearance occurred. […] At the stage two weeks (2 W) after the beginning of the tape stripping, the epidermal hyperplasia was kept. Table 1 shown below lists morphological alterations, histological alterations, and the like, of the finely wrinkled mouse model having been prepared in the manner described above together with the morphological alterations, histological alterations, and the like, of a Photo-aged mouse model having been prepared with UV light irradiation (for 10 weeks).

SMILES	Dermal hyperplasia suppressing effects [1]	Epidermal hyperplasia suppressing effects [1]	Wrinkling suppressing effects [1]	hyperplasia of the epidermis and the dermis (in words) [1]	wrinkle formation (in words) [1]	mean value of the wrinkle score (visual judgment, 0 no wrinkle to 3 deep wrinkles) [2]	mean value of the wrinkle area (%) versus vehicle [2]	Inhibition rate (%) of HB-EGF release (ADAM enzyme; concentration 10 μg/ml) [%]	Inhibition rate (%) of HB-EGF release (ADAM enzyme; concentration 50 μg/ml) [%]	wrinkle formation preventing effects (in words) (Photo-aged mouse model)
CCCCCCCC/C=C\CCCCCCCC(=O)O [Oleic acid]	x	x	x	accelerated the hyperplasia of the epidermis and the dermis	promoted the wrinkle formation	–	–	–	–	–
OCC(O)CO [Glycerol]	Δ	x	Δ	not capable of suppressing the hyperplasia of the epidermis and the dermis	not capable of suppressing the wrinkle formation at all	–	–	–	–	–
COc1ccc(C(=O)NO)cc1 [4-Methoxybenzohydroxamic acid]	–	–	–	–	–	0.91	significantly lower	14.8	55.8	–
COc1ccc(S(=O)(=O)N(Cc2cccnc2)[C@@H](C(=O)NO)C(C)C)cc1 [CGS27023A]	Δ	Δ	Δ	not capable of suppressing the hyperplasia of the epidermis and the dermis	not capable of suppressing the wrinkle formation at all	–	–	–	–	exhibited the wrinkle formation preventing effects
CC(C)C[C@H](CC(=O)NO)C(=O)N[C@@H](Cc1ccc2ccccc2c1)C(=O)N[C@@H](C)C(=O)NCCN [TAPI-1, N—(R)-(2-(Hydroxyaminocarbonyl)methyl)-4-Methylpentanoyl-L-Nal-L-Alanine 2-Aminoethyl amide]	∘	∘	∘	markedly suppressed the hyperplasia of the epidermis and the dermis	suppressed the wrinkle formation	0.43	significantly lower	–	–	–
